Experimental data: the kinase profiling compilation of Christmann-Franck et al. (2016)

Experiments:
Experiment in all cases: KINOMEscan competition binding
Settings in all cases: compound 10.0 µM
CDC42BPG (human) = CDC42BPG (human) (UniProt Q6DT37)
[1] = system: FLT3 (human), P36888 [N841I]
SRMS (human) = SRMS (human) (UniProt Q9H3Y6)
BMPR1A (human) = BMPR1A (human) (UniProt P36894)
FRK (human) = FRK (human) (UniProt P42685)
AURKB (human) = AURKB (human) (UniProt Q96GD4)
PAK2 (human) = PAK2 (human) (UniProt Q13177)
BRSK1 (human) = BRSK1 (human) (UniProt Q8TDC3)
ROCK2 (human) = ROCK2 (human) (UniProt O75116)
ADCK3 (human) = ADCK3 (human) (UniProt Q8NI60)
AKT1 (human) = AKT1 (human) (UniProt P31749)
RPS6KA2 KD2 (human) = RPS6KA2 KD2 (human) (UniProt Q15349)
CDK16 (human) = CDK16 (human) (UniProt Q00536)
FGR (human) = FGR (human) (UniProt P09769)
MAP2K4 (human) = MAP2K4 (human) (UniProt P45985)
TNK2 (human) = TNK2 (human) (UniProt Q07912)
INSRR (human) = INSRR (human) (UniProt P14616)
[2] = target: JAK1 JH1 catalytic (human) (UniProt P23458)
CAMK4 (human) = CAMK4 (human) (UniProt Q16566)
DDR1 (human) = DDR1 (human) (UniProt Q08345)
CDK14 (human) = CDK14 (human) (UniProt O94921)
DAPK1 (human) = DAPK1 (human) (UniProt P53355)
RPS6KA4 KD2 (human) = RPS6KA4 KD2 (human) (UniProt O75676)
TNIK (human) = TNIK (human) (UniProt Q9UKE5)
PRKACB (human) = PRKACB (human) (UniProt P22694)
MYLK3 (human) = MYLK3 (human) (UniProt Q32MK0)
PLK3 (human) = PLK3 (human) (UniProt Q9H4B4)
MAPK10 (human) = MAPK10 (human) (UniProt P53779)
DYRK1B (human) = DYRK1B (human) (UniProt Q9Y463)
TXK (human) = TXK (human) (UniProt P42681)
[3] = system: RET (human), P07949 [V804L]
PAK6 (human) = PAK6 (human) (UniProt Q9NQU5)
ITK (human) = ITK (human) (UniProt Q08881)
ADCK4 (human) = ADCK4 (human) (UniProt Q96D53)
STK4 (human) = STK4 (human) (UniProt Q13043)
ERBB2 (human) = ERBB2 (human) (UniProt P04626)
PIK3CA (human) = PIK3CA (human) (UniProt P42336)
PRKAA1 (human) = PRKAA1 (human) (UniProt Q13131)
CLK4 (human) = CLK4 (human) (UniProt Q9HAZ1)
STK24 (human) = STK24 (human) (UniProt Q9Y6E0)
MKNK1 (human) = MKNK1 (human) (UniProt Q9BUB5)
RIOK3 (human) = RIOK3 (human) (UniProt O14730)

Chain of FGR (human) (P09769 whole entry, looked up): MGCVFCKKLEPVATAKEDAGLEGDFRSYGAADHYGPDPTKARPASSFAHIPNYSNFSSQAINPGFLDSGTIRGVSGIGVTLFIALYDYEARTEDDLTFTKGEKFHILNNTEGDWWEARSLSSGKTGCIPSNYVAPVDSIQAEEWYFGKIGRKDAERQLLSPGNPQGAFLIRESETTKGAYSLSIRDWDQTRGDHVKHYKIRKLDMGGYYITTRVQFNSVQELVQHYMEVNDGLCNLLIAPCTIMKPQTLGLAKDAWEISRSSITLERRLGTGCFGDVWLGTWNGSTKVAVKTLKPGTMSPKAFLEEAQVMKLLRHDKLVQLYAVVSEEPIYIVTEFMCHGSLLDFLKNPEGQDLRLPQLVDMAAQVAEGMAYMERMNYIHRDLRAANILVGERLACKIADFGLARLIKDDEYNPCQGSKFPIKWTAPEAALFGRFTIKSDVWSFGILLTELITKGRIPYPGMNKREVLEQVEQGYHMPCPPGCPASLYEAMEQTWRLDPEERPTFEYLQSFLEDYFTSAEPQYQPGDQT
Chain of FRK (human) (P42685 whole entry, looked up): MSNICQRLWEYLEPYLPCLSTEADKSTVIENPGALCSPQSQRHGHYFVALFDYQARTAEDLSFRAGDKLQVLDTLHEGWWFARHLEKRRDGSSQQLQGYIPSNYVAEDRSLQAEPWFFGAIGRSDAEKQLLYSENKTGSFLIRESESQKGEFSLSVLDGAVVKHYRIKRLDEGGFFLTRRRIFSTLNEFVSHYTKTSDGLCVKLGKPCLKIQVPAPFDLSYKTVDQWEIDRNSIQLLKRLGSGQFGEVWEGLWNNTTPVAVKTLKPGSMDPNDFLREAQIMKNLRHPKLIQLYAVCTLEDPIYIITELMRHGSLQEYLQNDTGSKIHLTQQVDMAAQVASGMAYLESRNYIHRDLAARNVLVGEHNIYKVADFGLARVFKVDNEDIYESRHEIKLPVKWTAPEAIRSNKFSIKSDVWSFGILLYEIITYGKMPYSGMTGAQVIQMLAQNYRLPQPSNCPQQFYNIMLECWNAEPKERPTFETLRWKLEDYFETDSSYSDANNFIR
Chain of TNIK (human) (Q9UKE5 whole entry, looked up): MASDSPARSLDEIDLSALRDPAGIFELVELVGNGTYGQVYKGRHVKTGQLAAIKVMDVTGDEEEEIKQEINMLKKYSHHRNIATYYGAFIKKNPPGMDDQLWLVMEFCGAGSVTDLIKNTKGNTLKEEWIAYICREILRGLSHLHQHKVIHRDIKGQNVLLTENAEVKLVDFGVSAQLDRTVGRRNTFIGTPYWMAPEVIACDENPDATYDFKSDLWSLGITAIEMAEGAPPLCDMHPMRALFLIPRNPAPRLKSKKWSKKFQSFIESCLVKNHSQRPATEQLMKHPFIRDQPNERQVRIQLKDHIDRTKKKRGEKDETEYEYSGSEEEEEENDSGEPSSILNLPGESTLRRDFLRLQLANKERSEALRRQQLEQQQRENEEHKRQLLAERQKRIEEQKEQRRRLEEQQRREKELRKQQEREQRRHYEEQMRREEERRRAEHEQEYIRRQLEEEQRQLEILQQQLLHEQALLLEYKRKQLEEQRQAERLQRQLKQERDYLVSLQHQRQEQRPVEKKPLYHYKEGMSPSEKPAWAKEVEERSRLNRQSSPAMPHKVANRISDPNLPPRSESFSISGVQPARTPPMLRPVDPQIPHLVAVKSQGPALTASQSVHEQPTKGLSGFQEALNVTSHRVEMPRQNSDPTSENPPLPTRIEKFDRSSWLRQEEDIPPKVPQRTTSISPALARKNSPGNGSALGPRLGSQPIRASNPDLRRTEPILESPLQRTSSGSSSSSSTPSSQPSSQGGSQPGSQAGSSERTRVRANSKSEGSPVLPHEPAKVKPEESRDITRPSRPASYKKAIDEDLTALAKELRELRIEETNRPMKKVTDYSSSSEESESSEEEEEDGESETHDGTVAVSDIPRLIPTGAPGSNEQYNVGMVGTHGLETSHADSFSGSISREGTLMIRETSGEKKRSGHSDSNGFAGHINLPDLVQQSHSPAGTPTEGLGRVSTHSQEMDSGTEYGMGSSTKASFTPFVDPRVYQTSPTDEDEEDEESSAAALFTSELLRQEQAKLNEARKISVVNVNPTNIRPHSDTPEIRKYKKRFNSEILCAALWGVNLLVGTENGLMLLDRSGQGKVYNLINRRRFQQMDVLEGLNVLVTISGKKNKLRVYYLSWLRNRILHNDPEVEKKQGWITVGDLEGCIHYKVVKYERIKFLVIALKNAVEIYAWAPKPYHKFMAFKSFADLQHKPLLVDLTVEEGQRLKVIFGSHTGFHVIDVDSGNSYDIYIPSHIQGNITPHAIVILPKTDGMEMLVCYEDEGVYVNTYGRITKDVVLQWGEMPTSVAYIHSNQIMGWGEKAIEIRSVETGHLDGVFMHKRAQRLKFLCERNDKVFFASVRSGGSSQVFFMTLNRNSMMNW
Chain of TXK (human) (P42681 whole entry, looked up): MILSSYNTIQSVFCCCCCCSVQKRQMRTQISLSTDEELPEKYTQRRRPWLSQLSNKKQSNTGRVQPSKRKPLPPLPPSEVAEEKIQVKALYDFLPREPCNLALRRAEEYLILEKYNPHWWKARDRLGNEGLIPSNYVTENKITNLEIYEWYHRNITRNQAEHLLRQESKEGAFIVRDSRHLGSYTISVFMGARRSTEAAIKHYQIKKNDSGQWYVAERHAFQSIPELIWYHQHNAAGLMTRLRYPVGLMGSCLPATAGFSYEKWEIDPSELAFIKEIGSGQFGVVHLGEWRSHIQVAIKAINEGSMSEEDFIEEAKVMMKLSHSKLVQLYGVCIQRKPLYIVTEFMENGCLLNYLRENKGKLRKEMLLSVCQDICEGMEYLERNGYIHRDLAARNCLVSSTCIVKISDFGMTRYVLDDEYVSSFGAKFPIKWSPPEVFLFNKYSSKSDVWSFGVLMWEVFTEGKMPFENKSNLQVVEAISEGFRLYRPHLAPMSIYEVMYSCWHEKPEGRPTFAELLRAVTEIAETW
Chain of MAPK10 (human) (P53779 whole entry, looked up): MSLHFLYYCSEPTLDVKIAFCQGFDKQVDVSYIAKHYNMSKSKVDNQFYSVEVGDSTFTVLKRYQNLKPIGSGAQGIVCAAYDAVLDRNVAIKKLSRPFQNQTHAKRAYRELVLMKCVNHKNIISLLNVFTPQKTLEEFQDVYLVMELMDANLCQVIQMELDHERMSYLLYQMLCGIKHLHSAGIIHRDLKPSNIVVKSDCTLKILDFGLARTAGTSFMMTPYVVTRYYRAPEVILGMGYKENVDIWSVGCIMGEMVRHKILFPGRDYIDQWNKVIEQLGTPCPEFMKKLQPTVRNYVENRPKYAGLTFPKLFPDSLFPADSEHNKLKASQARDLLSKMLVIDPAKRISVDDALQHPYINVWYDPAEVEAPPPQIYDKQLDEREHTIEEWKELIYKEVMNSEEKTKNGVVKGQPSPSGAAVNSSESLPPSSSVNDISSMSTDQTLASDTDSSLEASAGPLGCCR
Chain of PRKAA1 (human) (Q13131 whole entry, looked up): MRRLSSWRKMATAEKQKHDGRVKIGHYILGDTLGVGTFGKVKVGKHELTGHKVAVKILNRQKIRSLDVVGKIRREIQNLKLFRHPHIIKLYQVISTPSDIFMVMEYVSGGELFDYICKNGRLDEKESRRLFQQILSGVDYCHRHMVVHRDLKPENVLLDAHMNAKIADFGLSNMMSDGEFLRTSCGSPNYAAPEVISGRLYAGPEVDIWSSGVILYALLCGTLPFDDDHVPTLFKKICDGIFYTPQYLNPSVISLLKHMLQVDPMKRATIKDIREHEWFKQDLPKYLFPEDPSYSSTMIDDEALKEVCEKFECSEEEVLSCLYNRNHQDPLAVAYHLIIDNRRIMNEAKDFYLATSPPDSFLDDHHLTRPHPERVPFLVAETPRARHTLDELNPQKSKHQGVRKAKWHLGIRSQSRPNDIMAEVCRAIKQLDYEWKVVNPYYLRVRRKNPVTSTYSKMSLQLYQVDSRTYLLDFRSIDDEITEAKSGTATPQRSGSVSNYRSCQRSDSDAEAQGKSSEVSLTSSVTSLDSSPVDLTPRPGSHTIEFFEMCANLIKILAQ
Chain of SRMS (human) (Q9H3Y6 whole entry, looked up): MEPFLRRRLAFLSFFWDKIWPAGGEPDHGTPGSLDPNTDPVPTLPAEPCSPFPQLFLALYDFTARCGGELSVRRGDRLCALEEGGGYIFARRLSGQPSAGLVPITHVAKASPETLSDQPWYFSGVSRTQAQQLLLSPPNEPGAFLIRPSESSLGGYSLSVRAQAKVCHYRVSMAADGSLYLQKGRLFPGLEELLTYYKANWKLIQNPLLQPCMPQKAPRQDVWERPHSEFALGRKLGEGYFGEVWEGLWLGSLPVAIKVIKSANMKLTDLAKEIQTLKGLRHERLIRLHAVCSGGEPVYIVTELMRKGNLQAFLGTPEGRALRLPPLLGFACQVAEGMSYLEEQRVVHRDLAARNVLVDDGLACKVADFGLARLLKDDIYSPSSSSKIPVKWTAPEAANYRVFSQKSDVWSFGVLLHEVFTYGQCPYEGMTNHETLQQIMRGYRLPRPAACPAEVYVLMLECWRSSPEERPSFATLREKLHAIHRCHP
Chain of CDK14 (human) (O94921 whole entry, looked up): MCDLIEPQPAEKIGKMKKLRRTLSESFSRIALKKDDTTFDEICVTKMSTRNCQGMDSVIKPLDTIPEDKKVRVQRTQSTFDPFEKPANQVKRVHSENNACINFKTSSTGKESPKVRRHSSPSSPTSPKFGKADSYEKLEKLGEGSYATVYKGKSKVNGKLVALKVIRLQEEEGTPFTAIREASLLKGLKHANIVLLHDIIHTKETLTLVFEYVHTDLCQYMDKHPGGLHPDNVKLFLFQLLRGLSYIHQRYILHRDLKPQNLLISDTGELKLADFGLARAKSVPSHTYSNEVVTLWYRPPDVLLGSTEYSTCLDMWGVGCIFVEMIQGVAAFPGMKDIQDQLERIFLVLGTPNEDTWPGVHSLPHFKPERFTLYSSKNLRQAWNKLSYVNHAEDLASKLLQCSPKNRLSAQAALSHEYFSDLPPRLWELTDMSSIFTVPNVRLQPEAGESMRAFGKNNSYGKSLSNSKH

CCN1CCN(Cc2ccc(NC(=O)c3ccc(C)c(/C=C/c4cnc(Nc5cc(N6CCNCC6)nc(C)n5)cn4)c3)cc2C(F)(F)F)CC1
kinase still bound, per cent of control (CDC42BPG (human)): 100% | kinase still bound, per cent of control [1]: 0% | kinase still bound, per cent of control (SRMS (human)): 8.2% | kinase still bound, per cent of control (BMPR1A (human)): 100% | kinase still bound, per cent of control (FRK (human)): 7% | kinase still bound, per cent of control (AURKB (human)): 100% | kinase still bound, per cent of control (PAK2 (human)): 69% | kinase still bound, per cent of control (BRSK1 (human)): 91% | kinase still bound, per cent of control (ROCK2 (human)): 51% | kinase still bound, per cent of control (ADCK3 (human)): 100% | kinase still bound, per cent of control (AKT1 (human)): 100% | kinase still bound, per cent of control (RPS6KA2 KD2 (human)): 43% | kinase still bound, per cent of control (CDK16 (human)): 60% | kinase still bound, per cent of control (FGR (human)): 4.5% | kinase still bound, per cent of control (MAP2K4 (human)): 100% | kinase still bound, per cent of control (TNK2 (human)): 32% | kinase still bound, per cent of control (INSRR (human)): 44% | kinase still bound, per cent of control [2]: 80% | kinase still bound, per cent of control (CAMK4 (human)): 100% | kinase still bound, per cent of control (DDR1 (human)): 0% | kinase still bound, per cent of control (CDK14 (human)): 88% | kinase still bound, per cent of control (DAPK1 (human)): 85% | kinase still bound, per cent of control (RPS6KA4 KD2 (human)): 43% | kinase still bound, per cent of control (TNIK (human)): 1.9% | kinase still bound, per cent of control (PRKACB (human)): 90% | kinase still bound, per cent of control (MYLK3 (human)): 59% | kinase still bound, per cent of control (PLK3 (human)): 83% | kinase still bound, per cent of control (MAPK10 (human)): 54% | kinase still bound, per cent of control (DYRK1B (human)): 76% | kinase still bound, per cent of control (TXK (human)): 4% | kinase still bound, per cent of control [3]: 1.2% | kinase still bound, per cent of control (PAK6 (human)): 91% | kinase still bound, per cent of control (ITK (human)): 86% | kinase still bound, per cent of control (ADCK4 (human)): 93% | kinase still bound, per cent of control (STK4 (human)): 22% | kinase still bound, per cent of control (ERBB2 (human)): 0% | kinase still bound, per cent of control (PIK3CA (human)): 92% | kinase still bound, per cent of control (PRKAA1 (human)): 18% | kinase still bound, per cent of control (CLK4 (human)): 31% | kinase still bound, per cent of control (STK24 (human)): 30% | kinase still bound, per cent of control (MKNK1 (human)): 89% | kinase still bound, per cent of control (RIOK3 (human)): 78%

CCN1CCN(Cc2ccc(NC(=O)c3ccc(C)c(Oc4ccnc5[nH]ccc45)c3)cc2C(F)(F)F)CC1
kinase still bound, per cent of control [1]: 0% | kinase still bound, per cent of control (SRMS (human)): 4.6% | kinase still bound, per cent of control (FRK (human)): 0.7% | kinase still bound, per cent of control (CDK16 (human)): 11% | kinase still bound, per cent of control (FGR (human)): 1.2% | kinase still bound, per cent of control (INSRR (human)): 23% | kinase still bound, per cent of control (DDR1 (human)): 0.05% | kinase still bound, per cent of control (CDK14 (human)): 0.4% | kinase still bound, per cent of control (TNIK (human)): 8.2% | kinase still bound, per cent of control (PRKACB (human)): 14% | kinase still bound, per cent of control (MAPK10 (human)): 12% | kinase still bound, per cent of control (TXK (human)): 12% | kinase still bound, per cent of control [3]: 0.8% | kinase still bound, per cent of control (PRKAA1 (human)): 33%

COc1cc(N2CCC(N3CCN(C)CC3)CC2)ccc1Nc1ncc(Cl)c(Nc2ccccc2S(=O)(=O)C(C)C)n1
kinase still bound, per cent of control (CDC42BPG (human)): 23% | kinase still bound, per cent of control (SRMS (human)): 0% | kinase still bound, per cent of control (BMPR1A (human)): 0% | kinase still bound, per cent of control (FRK (human)): 0.2% | kinase still bound, per cent of control (AURKB (human)): 1% | kinase still bound, per cent of control (PAK2 (human)): 30% | kinase still bound, per cent of control (BRSK1 (human)): 1.2% | kinase still bound, per cent of control (ROCK2 (human)): 0.95% | kinase still bound, per cent of control (ADCK3 (human)): 9.2% | kinase still bound, per cent of control (AKT1 (human)): 40% | kinase still bound, per cent of control (RPS6KA2 KD2 (human)): 6.2% | kinase still bound, per cent of control (FGR (human)): 2.8% | kinase still bound, per cent of control (MAP2K4 (human)): 1.6% | kinase still bound, per cent of control (TNK2 (human)): 0% | kinase still bound, per cent of control (INSRR (human)): 0.35% | kinase still bound, per cent of control [2]: 4.7% | kinase still bound, per cent of control (CAMK4 (human)): 0.5% | kinase still bound, per cent of control (DDR1 (human)): 0.05% | kinase still bound, per cent of control (CDK14 (human)): 40% | kinase still bound, per cent of control (DAPK1 (human)): 6.4% | kinase still bound, per cent of control (RPS6KA4 KD2 (human)): 40% | kinase still bound, per cent of control (TNIK (human)): 12% | kinase still bound, per cent of control (PRKACB (human)): 9.9% | kinase still bound, per cent of control (MYLK3 (human)): 40% | kinase still bound, per cent of control (PLK3 (human)): 0% | kinase still bound, per cent of control (MAPK10 (human)): 2.6% | kinase still bound, per cent of control (DYRK1B (human)): 40% | kinase still bound, per cent of control (TXK (human)): 6.9% | kinase still bound, per cent of control (PAK6 (human)): 13% | kinase still bound, per cent of control (ITK (human)): 0.1% | kinase still bound, per cent of control (ADCK4 (human)): 0% | kinase still bound, per cent of control (STK4 (human)): 4.1% | kinase still bound, per cent of control (ERBB2 (human)): 8% | kinase still bound, per cent of control (PIK3CA (human)): 40% | kinase still bound, per cent of control (PRKAA1 (human)): 0.1% | kinase still bound, per cent of control (CLK4 (human)): 1.2% | kinase still bound, per cent of control (STK24 (human)): 24% | kinase still bound, per cent of control (MKNK1 (human)): 40% | kinase still bound, per cent of control (RIOK3 (human)): 3.2%
